This is an account of results in patent US20110251379A1, “COMPOUNDS USEFUL FOR TREATING NEURODEGENERATIVE DISORDERS” (Satori Pharmaceuticals, Inc., priority 2010, published 2011).

Read-outs that look alike come from different tables or passages of the source.

As a reminder, the inhibition is the relative decrease from the control value, in per cent. Low values mean a response near the control, high ones a response far below the control.

What all share (assay type): cell-based
One assay has as its system Aβ-38. As to the kind of experiment: MSD Human (6E10) Ab 3-PLEX elisa, conditioned media of 2B7 cells: Aβ-38. The conditions noted are these: Homo sapiens; for inhibition at 100 µM: Aβ-38, 100 μM; for inhibition at 20 µM: Aβ-38, 20 μM. In short, it runs like this:
(§1)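 We dose confluent 2B7 cells for 5 hours at 37° C, keeping DMSO at 1%. Diluted media then incubates on antibody-coated plates either overnight at 4 degrees C or 2 hours at room temp.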

For a further assay, the system named is Aβ-42. Put plainly: MSD Human (6E10) Ab 3-PLEX elisa, conditioned media of 2B7 cells: Aβ-42. Particulars: Homo sapiens; for IC50: Aβ-42 (superscript c); for inhibition at 20 µM: Aβ-42, 20 μM. In short, it runs like this: as §1
The next assay concerns Aβ-40. As to the kind of experiment: MSD Human (6E10) Ab 3-PLEX elisa, conditioned media of 2B7 cells: Aβ-40. Particulars: for inhibition at 20 µM: Aβ-40, 20 μM; for IC50: Aβ-40 (superscript b). In short, it runs like this:
as §1

Take `C[C@@H]1CC(CN2CCC[C@H]2C(=O)O)OC2[C@H]1[C@@]1(C)CC[C@@]34C[C@@]35CC[C@H](O[C@H]3CN(C(=O)CC6CC6)CCO3)C(C)(C)[C@@H]5CCC4[C@]1(C)[C@H]2O` (stereo partly drawn): the inhibition at 100 µM lay within 25 to 75% with Aβ-38 and 25 to 75% in the assay with Aβ-40 (Homo sapiens, Aβ-40, 100 μM). The IC50 with Aβ-42 (read-out: IC50 range) was above 10 µM.
As to `CC(=O)NCCC1C[C@@H](C)[C@H]2C(O1)[C@H](O)[C@@]1(C)C3CC[C@H]4C(C)(C)[C@@H](O)CC[C@@]45C[C@@]35CC[C@]21C` (stereo partly drawn), the inhibition at 20 µM with Aβ-38 was 25 to 75%; in the assay on Aβ-40 (Homo sapiens), below 25%. Moreover, the IC50 in the assay with Aβ-42 (read-out: 50% reduction value) fell in the range of 1 to 10 µM.
Turning to `COC(=O)OCC1C[C@@H](C)[C@H]2C(O1)[C@H](O)[C@@]1(C)C3CC[C@H]4C(C)(C)[C@@H](O)CC[C@@]45C[C@@]35CC[C@]21C` (stereo partly drawn), the inhibition at 20 µM with Aβ-38, with Aβ-42 and with Aβ-40 (Homo sapiens) was 25 to 75% each time.
`COC(=O)O[C@H](C(C)C)C1C[C@@H](C)[C@H]2C(O1)[C@H](O)[C@@]1(C)C3CC[C@H]4C(C)(C)[C@@H](O)CC[C@@]45C[C@@]35CC[C@]21C` (stereo partly drawn): the inhibition at 20 µM with Aβ-38, in the assay with Aβ-42 and with Aβ-40 (Homo sapiens) was 25 to 75% throughout.
Turning to `CCOC(=O)CO[C@@H]([C@H]1C[C@@H](C)[C@H]2[C@H](O1)[C@H](O)[C@@]1(C)C3CC[C@H]4C(C)(C)[C@@H](O[C@H]5CN(C6COC6)CCO5)CC[C@@]45C[C@@]35CC[C@]21C)C(C)(C)O` (stereo partly drawn), the inhibition at 20 µM in the assay on Aβ-38 and with Aβ-42 was 25 to 75% throughout. For the same molecule, the IC50 in the assay with Aβ-40 (Homo sapiens, read-out: 50% reduction value) was above 10 µM.
On to `CNC(=O)O[C@@H]([C@H]1C[C@@H](C)[C@H]2[C@H](O1)[C@H](O)[C@@]1(C)C3CC[C@H]4C(C)(C)[C@@H](O)CC[C@@]45C[C@@]35CC[C@]21C)C(C)(C)O` (stereo partly drawn), for which the inhibition at 20 µM in the assay with Aβ-38, in the assay on Aβ-42 and in the assay with Aβ-40 (Homo sapiens) was 25 to 75% throughout.
On to `C[C@@H]1CC(COC(=O)C2CCC2)OC2[C@H]1[C@@]1(C)CC[C@@]34C[C@@]35CC[C@H](O[C@H]3CN(C6COC6)CCO3)C(C)(C)[C@@H]5CCC4[C@]1(C)[C@H]2O` (stereo partly drawn), for which the inhibition at 20 µM was 25 to 75% in the assay with Aβ-38, below 25% in the assay on Aβ-42 and below 25% in the assay with Aβ-40 (Homo sapiens).
With `CC(=O)OC(C)(C)C1C[C@@H](C)[C@H]2C(O1)[C@H](O)[C@@]1(C)C3CC[C@H]4C(C)(C)C(OC(=O)N5CCOCC5)CC[C@@]45C[C@@]35CC[C@]21C` (stereo partly drawn), the inhibition at 20 µM in the assay with Aβ-38 is 25 to 75%; in the assay on Aβ-42, below 25%; with Aβ-40 (Homo sapiens) it was below 25%.
With `C[C@@H]1CC([C@H](Oc2ncccn2)C(C)(C)O)OC2C1[C@@]1(C)CC[C@@]34C[C@@]35CCC(O)C(C)(C)[C@@H]5CCC4[C@]1(C)[C@H]2O` (stereo partly drawn), the inhibition at 20 µM in the assay on Aβ-38, with Aβ-42 and in the assay on Aβ-40 (Homo sapiens) was 25 to 75% each time.
As for `C[C@@H]1CC([C@H](Oc2ncccn2)C(C)(C)O)OC2C1[C@@]1(C)CC[C@@]34C[C@@]35CCC(OC(=O)N3CCOCC3)C(C)(C)[C@@H]5CCC4[C@]1(C)[C@H]2O` (stereo partly drawn), the inhibition at 20 µM with Aβ-38 lay in the range of 25 to 75%. Besides, the IC50 with Aβ-42 (read-out: 50% reduction value) is above 10 µM; with Aβ-40 (Homo sapiens, read-out: IC50 range), above 10 µM.
Turning to `COCC1C[C@@H](C)[C@H]2C(O1)[C@H](O)[C@@]1(C)[C@@H]3CC[C@H]4C(C)(C)C(O[C@H]5CN(C6COC6)CCO5)CC[C@@]45C[C@@]35CC[C@]21C` (stereo partly drawn), the inhibition at 20 µM in the assay with Aβ-38, in the assay with Aβ-42 and in the assay on Aβ-40 (Homo sapiens) was below 25% each time.
As to `C[C@@H]1CC(CN(C)[C@@H](C)C(=O)O)OC2[C@H]1[C@@]1(C)CC[C@@]34C[C@@]35CC[C@H](O[C@H]3CN(C(=O)CC6CC6)CCO3)C(C)(C)[C@@H]5CCC4[C@]1(C)[C@H]2O` (stereo partly drawn) [drawing 1142], the inhibition at 100 µM is 25 to 75% in the assay with Aβ-38 and 25 to 75% in the assay with Aβ-42 (Aβ-42, 100 μM). In the assay with Aβ-40 (Aβ-40, 100 μM, 100 µM), the “% Inh. (range)” value is recorded as “E^a (100 μM) E^b (100 μM) E^c (100 μM) (% inhibition of 25-75%)”.
